According to publication PMC6266789 (Viruses, 2018):

Tested on: NA of pH1N1 influenza virus recovered from lungs of IS mice
Format: biochemical, influenza A(H1N1)pdm09

## CCOC(=O)C1=C[C@@H](OC(CC)CC)[C@H](NC(C)=O)[C@@H](N)C1 [Oseltamivir, oseltamivir]
  oseltamivir resistance phenotype associated with H275Y by NAI assay: not detected
